The values below are quoted from earlier work in PMC3433420 (PLoS ONE, 2012).

Like-named read-outs stand apart in the source and are kept apart here.

This series concerns the target SH2 and PTB domains. To be noted: cited from earlier work. The text has this: Supplement pone.0044471.s022.xlsx, sheet "Most recent PM interactions" | column: Kd || Supplement pone.0044471.s022.xlsx, sheet "All original PM interactions" | column: Kd
The mark [1] stands for this setting: protein PLCG2-NC, ref Kaushansky et al. Chem and Biol 2008.

Broadly, the Kd is the equilibrium constant for the complex coming apart. For the substance “DAEEpYLVPQQGFd [ErbB2 pY1023, N-terminally rhodamine-labeled 13-mer phosphopeptide]”, the Kd runs as follows: (protein ABL2, ref Jones et al. 2006 / Kaushansky et al. Chem and Biol 2008) 2 µM; (protein BLK, ref Jones et al. 2006 / Kaushansky et al. Chem and Biol 2008) 2 µM; (protein CRK, ref Jones et al. 2006 / Kaushansky et al. Chem and Biol 2008) 2 µM; (protein CRKL, ref Jones et al. 2006 / Kaushansky et al. Chem and Biol 2008) 2 µM; (protein DAPP1, ref Jones et al. 2006 / Kaushansky et al. Chem and Biol 2008) 2 µM; (protein FGR, ref Jones et al. 2006 / Kaushansky et al. Chem and Biol 2008) 2 µM. Besides, the Kd is 2 µM (protein ITK, ref Jones et al. 2006 / Kaushansky et al. Chem and Biol 2008); 2 µM (protein LYN, ref Jones et al. 2006 / Kaushansky et al. Chem and Biol 2008); 2 µM (protein NCK2, ref Jones et al. 2006 / Kaushansky et al. Chem and Biol 2008); 2 µM (protein PIK3R1-C, ref Jones et al. 2006 / Kaushansky et al. Chem and Biol 2008); 1.64 µM (protein PIK3R1-NC, ref Jones et al. 2006 / Kaushansky et al. Chem and Biol 2008); 1.95 µM (protein PIK3R2-N, ref Jones et al. 2006 / Kaushansky et al. Chem and Biol 2008). The equilibrium dissociation constant (Kd) reads like this: (protein PIK3R2-NC, ref Jones et al. 2006 / Kaushansky et al. Chem and Biol 2008) 2 µM; (protein PIK3R3-N, ref Jones et al. 2006 / Kaushansky et al. Chem and Biol 2008) 1.93 µM; (protein PIK3R3-NC, ref Jones et al. 2006 / Kaushansky et al. Chem and Biol 2008) 0.53 µM; (protein PLCG1-C, ref Jones et al. 2006 / Kaushansky et al. Chem and Biol 2008) 1.46 µM; (protein PLCG1-NC, ref Jones et al. 2006 / Kaushansky et al. Chem and Biol 2008) 2 µM; (protein PTPN6-C, ref Jones et al. 2006 / Kaushansky et al. Chem and Biol 2008) 2 µM. For the same substance, the equilibrium dissociation constant (Kd) runs as follows: (protein RASA1-N, ref Jones et al. 2006 / Kaushansky et al. Chem and Biol 2008) 2 µM; (protein RASA1-NC, ref Jones et al. 2006 / Kaushansky et al. Chem and Biol 2008) 2 µM; (protein SH2B2, ref Jones et al. 2006 / Kaushansky et al. Chem and Biol 2008) 2 µM; (protein SH2D3A, ref Jones et al. 2006 / Kaushansky et al. Chem and Biol 2008) 2 µM; (protein SHC1-PTB, ref Jones et al. 2006 / Kaushansky et al. Chem and Biol 2008) 2 µM; (protein SHC2-PTB, ref Jones et al. 2006 / Kaushansky et al. Chem and Biol 2008) 2 µM. Besides, the Kd (protein SHC3, ref Jones et al. 2006 / Kaushansky et al. Chem and Biol 2008) is 2 µM; the dissociation constant (Kd) (protein SLA2, ref Jones et al. 2006 / Kaushansky et al. Chem and Biol 2008) is 2 µM; the dissociation constant Kd (protein SLA, ref Jones et al. 2006 / Kaushansky et al. Chem and Biol 2008) is 2 µM; the equilibrium dissociation constant (Kd) (protein SOCS1, ref Jones et al. 2006 / Kaushansky et al. Chem and Biol 2008) is 2 µM; the Kd (protein SOCS2, ref Jones et al. 2006 / Kaushansky et al. Chem and Biol 2008) was 2 µM; the dissociation constant Kd (protein SRC, ref Jones et al. 2006 / Kaushansky et al. Chem and Biol 2008) is 0.76 µM. In addition, the dissociation constant (Kd) was 0.91 µM (protein SUPT6H, ref Jones et al. 2006 / Kaushansky et al. Chem and Biol 2008); 0.37 µM (protein SYK-NC, ref Jones et al. 2006 / Kaushansky et al. Chem and Biol 2008); 2 µM (protein TEC, ref Jones et al. 2006 / Kaushansky et al. Chem and Biol 2008); 2 µM (protein TENC1, ref Jones et al. 2006 / Kaushansky et al. Chem and Biol 2008); 2 µM (protein VAV1, ref Jones et al. 2006 / Kaushansky et al. Chem and Biol 2008); 2 µM (protein VAV2, ref Jones et al. 2006 / Kaushansky et al. Chem and Biol 2008). The Kd reads like this: (protein VAV3, ref Jones et al. 2006 / Kaushansky et al. Chem and Biol 2008) 2 µM; (protein YES1, ref Jones et al. 2006 / Kaushansky et al. Chem and Biol 2008) 1.17 µM.
As to “DEKEpYNADGGKMd [ErbB4 pY875, N-terminally rhodamine-labeled 13-mer phosphopeptide]”, the equilibrium dissociation constant (Kd) under setting [1] was 1.14 µM.
As to “DETEpYHADGGKVd [ErbB2 pY877, N-terminally rhodamine-labeled 13-mer phosphopeptide]”, the Kd is 0.72 µM (protein BLK, ref Kaushansky et al. Chem and Biol 2008); 0.65 µM (protein PLCG2-N, ref Kaushansky et al. Chem and Biol 2008); 1.1 µM under setting [1]; 1.4 µM (protein RASA1-NC, ref Kaushansky et al. Chem and Biol 2008); 1.89 µM (protein YES1, ref Kaushansky et al. Chem and Biol 2008).
